Data: EP0942911B1, “BENZOPYRANOPYRROLE AND BENZOPYRANOPYRIDINE ALPHA-1 ADRENERGIC COMPOUNDS” (Abbott Laboratories, priority 1996, dated 1998)
Counter-ions that a name gives are not always drawn. Like-named read-outs stand apart in the source and are kept apart here.

What was measured:
[1] = target: T1, α-1A adrenoreceptor (rat submaxillary gland) (Rattus norvegicus, UniProt P43140); assay: biochemical; type: binding; conditions: read-out: Radioligand Binding (Ki, nM) 1A (Rat)
T1 sequence (P43140 1-466): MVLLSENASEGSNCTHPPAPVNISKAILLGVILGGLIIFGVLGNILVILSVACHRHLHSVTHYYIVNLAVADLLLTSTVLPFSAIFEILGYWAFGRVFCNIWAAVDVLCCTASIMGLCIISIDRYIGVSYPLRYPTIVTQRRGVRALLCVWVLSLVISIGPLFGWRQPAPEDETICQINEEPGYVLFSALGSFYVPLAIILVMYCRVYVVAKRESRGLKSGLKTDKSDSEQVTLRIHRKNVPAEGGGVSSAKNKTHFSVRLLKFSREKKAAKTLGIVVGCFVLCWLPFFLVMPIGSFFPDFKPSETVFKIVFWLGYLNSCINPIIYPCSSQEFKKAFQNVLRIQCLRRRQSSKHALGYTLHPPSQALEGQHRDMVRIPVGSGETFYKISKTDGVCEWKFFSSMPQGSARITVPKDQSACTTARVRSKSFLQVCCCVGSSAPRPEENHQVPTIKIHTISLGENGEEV
Outline: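 Radioligand binding to α-1A sites in membrane homogenates of rat submaxillary gland, run after Greengrass and Bremner. Bound radioactivity counted by liquid scintillation.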

α-1b adrenoreceptor = target: T2, α-1b adrenoreceptor (Mesocricetus auratus, UniProt P18841); assay: biochemical; type: binding, hamster; conditions: read-out: Radioligand Binding (Ki, nM) 1b (Hamster)
T2 sequence (P18841 1-515): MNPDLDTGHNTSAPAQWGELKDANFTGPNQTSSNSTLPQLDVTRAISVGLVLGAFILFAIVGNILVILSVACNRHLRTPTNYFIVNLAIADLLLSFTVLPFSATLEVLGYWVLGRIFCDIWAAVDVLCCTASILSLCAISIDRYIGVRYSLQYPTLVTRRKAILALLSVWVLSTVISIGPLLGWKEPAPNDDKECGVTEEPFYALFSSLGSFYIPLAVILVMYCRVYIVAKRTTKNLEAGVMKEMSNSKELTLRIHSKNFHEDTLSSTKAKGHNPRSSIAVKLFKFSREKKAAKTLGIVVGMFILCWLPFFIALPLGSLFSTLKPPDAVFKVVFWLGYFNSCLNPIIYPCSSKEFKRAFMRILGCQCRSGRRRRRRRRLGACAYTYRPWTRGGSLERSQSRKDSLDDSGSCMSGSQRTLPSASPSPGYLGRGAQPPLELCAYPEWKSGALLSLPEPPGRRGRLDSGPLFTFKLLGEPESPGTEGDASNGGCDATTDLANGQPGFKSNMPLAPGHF
Outline: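 LTK mouse fibroblasts stably transfected with α-1a, α-1b or α-1d cDNA → roller-bottle culture 5 days at 37 °C → membranes in 50 mM Tris-HCl, stored at -70 °C → radioligand binding → scintillation counting.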

[2] = [3H]-prazosin radioligand, rat submaxillary gland membranes
[3] = [3H]-prazosin radioligand, cloned receptor in LTK cell membranes

COc1cccc2c1[C@@H]1CN(CCCCn3c(=O)[nH]c4c(sc5ccncc54)c3=O)C[C@H]1CO2 [Example 41, 3-[4-((3aS,9bR)-trans-9-Methoxy-1,2,3,3a,4,9b-hexahydro-[1]-benzopyrano[3,4-c]pyrrol-2-yl)butyl]-pyrido[3',4':4,5]thieno[3,2-d]pyrimidine-2,4(1H,3H)-dione dihydrochloride]
Ki [1, 2]: 0.069 nM
Ki (α-1b adrenoreceptor; [3]): 0.603 nM

COc1cccc2c1[C@@H]1CN(CCCCn3c(=O)[nH]c4c(sc5ncccc54)c3=O)C[C@H]1CO2 [Example 44, 3-[4-((3aS,9bR)-trans-9-Methoxy-1,2,3,3a,4,9b-hexahydro-[1]-benzopyrano[3,4-c]pyrrol-2-yl)butyl]-pyrido[3',2':4,5]thieno[3,2-d]pyrimidine-2,4(1H,3H)-dione hydrochloride]
Ki [1, 2]: 0.043 nM
Ki (α-1b adrenoreceptor; [3]): 0.622 nM

COc1cccc2c1[C@@H]1CN(CCCCn3c(=O)[nH]c4c(sc5cccnc54)c3=O)C[C@@H]1CO2 [Example 1, 3-[4-((3aR,9bR)-cis-9-Methoxy-1,2,3,3a,4,9b-hexahydro-[1]-benzopyrano[3,4-c]pyrrol-2-yl)butyl]-pyrido[2',3':4,5]thieno[3,2-d]pyrimidine-2,4(1H,3H)-dione hydrochloride]
Ki [1, 2]: 0.045 nM
Ki (α-1b adrenoreceptor; [3]): 1.14 nM

COc1cccc2c1[C@@H]1CN(CCCCn3c(=O)[nH]c4c(sc5ncc(Cl)nc54)c3=O)C[C@H]1CO2 [Example 13, 3-[4-((3aS,9bR)-trans-9-Methoxy-1,2,3,3a,4,9b-hexahydro-[1]-benzopyrano[3,4-c]pyrrol-2-yl)butyl]-8-chloro-pyrazino[2',3':4,5]thieno[3,2-d]pyrimidine-2,4(1H,3H)-dione hydrochloride]
Ki [1, 2]: 0.1 nM
Ki (α-1b adrenoreceptor; [3]): 2.49 nM

COc1ccc2c(n1)sc1c(=O)n(CCCCN3C[C@H]4COc5cccc(OC)c5[C@@H]4C3)c(=O)[nH]c12 [Example 46, 3-[4-((3aS,9bR)-trans-9-Methoxy-1,2,3,3a,4,9b-hexahydro-[1]-benzopyrano[3,4-c]pyrrol-2-yl)butyl]-7-methoxy-pyrido[3',2':4,5]thieno[3,2-d]pyrimidine-2,4(1H,3H)-dione hydrochloride]
Ki [1, 2]: 0.353 nM
Ki (α-1b adrenoreceptor; [3]): 2.58 nM

COc1cccc2c1[C@@H]1CN(CCCCn3c(=O)[nH]c4c(sc5ncccc54)c3=O)C[C@@H]1CO2 [Example 34, 3-[4-((3aR,9bR)-cis-9-Methoxy-1,2,3,3a,4,9b-hexahydro-[1]-benzopyrano[3,4-c]pyrrol-2-yl)butyl]-pyrido[3',2':4,5]thieno[3,2-d]pyrimidine-2,4(1H,3H)-dione hydrochloride]
Ki [1, 2]: 0.474 nM
Ki (α-1b adrenoreceptor; [3]): 3.37 nM

COc1cccc2c1[C@@H]1CN(CCCCn3c(=O)[nH]c4c(sc5cc(Cl)cnc54)c3=O)C[C@@H]1CO2 [Example 38, 3-[4-((3aR,9bR)-cis-9-Methoxy-1,2,3,3a,4,9b-hexahydro-[1]-benzopyrano[3,4-c]pyrrol-2-yl)butyl]-7-chloro-pyrido[2',3':4,5]thieno[3,2-d]pyrimidine-2,4(1H,3H)-dione hydrochloride]
Ki [1, 2]: 0.376 nM
Ki (α-1b adrenoreceptor; [3]): 5.63 nM

COc1cccc2c1[C@@H]1CN(CCCCn3c(=O)[nH]c4c(sc5c(Cl)nccc54)c3=O)C[C@H]1CO2 [Example 54, 3-[4-((3aS,9bR)-trans-9-Methoxy-1,2,3,3a,4,9b-hexahydro-[1]-benzopyrano[3,4-c]pyrrol-2-yl)butyl]-6-chloro-pyrido[4',3':4,5]thieno[3,2-d]pyrimidine-2,4(1H,3H)-dione]
Ki [1, 2]: 0.077 nM
Ki (α-1b adrenoreceptor; [3]): 1 nM

COc1cccc2c1[C@@H]1CN(CCCCn3c(=O)[nH]c4c(sc5cnccc54)c3=O)C[C@H]1CO2 [Example 42, 3-[4-((3aS,9bR)-trans-9-Methoxy-1,2,3,3a,4,9b-hexahydro-[1]-benzopyrano[3,4-c]pyrrol-2-yl)butyl]-pyrido[4',3':4,5]thieno[3,2-d]pyrimidine-2,4(1H,3H)-dione dihydrochloride]
Ki [1, 2]: 0.073 nM
Ki (α-1b adrenoreceptor; [3]): 0.829 nM

COc1cccc2c1[C@@H]1CN(CCCCn3c(=O)[nH]c4c(sc5nc(C)ccc54)c3=O)C[C@H]1CO2 [Example 45, 3-[4-((3aS,9bR)-trans-9-Methoxy-1,2,3,3a,4,9b-hexahydro-[1]-benzopyrano[3,4-c]pyrrol-2-yl)butyl]-7-methyl-pyrido[3',2':4,5]thieno[3,2-d]pyrimidine-2,4(1H,3H)-dione hydrochloride]
Ki [1, 2]: 0.125 nM
Ki (α-1b adrenoreceptor; [3]): 1.34 nM

COc1cccc2c1[C@@H]1CN(CCCCn3c(=O)[nH]c4c(sc5ccc(Cl)nc54)c3=O)C[C@@H]1CO2 [Example 37, 3-[4-((3aR,9bR)-cis-9-Methoxy-1,2,3,3a,4,9b-hexahydro-[1]-benzopyrano[3,4-c]pyrrol-2-yl)butyl]-8-chloro-pyrido[2',3':4,5]thieno[3,2-d]pyrimidine-2,4(1H,3H)-dione hydrochloride]
Ki [1, 2]: 0.264 nM
Ki (α-1b adrenoreceptor; [3]): 3.34 nM

COc1cccc2c1[C@@H]1CCN(CCCCn3c(=O)[nH]c4c(sc5ncccc54)c3=O)C[C@H]1CO2 (racemic) [Example 85, 3-[4-((±)-trans-10-Methoxy-1,3,4,4a,5,10b-hexahydro-2H-[1]-benzopyrano[3,4-c]pyrido-3-yl)butyl]-pyrido[3',2':4,5]thieno[3,2-d]pyrimidine-2,4(1H,3H)-dione dihydrochloride]
Ki [1, 2]: 0.419 nM
Ki (α-1b adrenoreceptor; [3]): 1.89 nM

COc1ccc2sc3c(=O)n(CCCCN4C[C@@H]5COc6cccc(OC)c6[C@@H]5C4)c(=O)[nH]c3c2n1 [Example 30, 3-[4-((3aR,9bR)-cis-9-Methoxy-1,2,3,3a,4,9b-hexahydro-[1]-benzopyrano[3,4-c]pyrrol-2-yl)butyl]-8-methoxy-pyrido[2',3':4,5]thieno[3,2-d]pyrimidine-2,4(1H,3H)-dione hydrochloride]
Ki [1, 2]: 0.264 nM
Ki (α-1b adrenoreceptor; [3]): 2.67 nM

COc1cccc2c1[C@@H]1CN(CCCn3c(=O)[nH]c4c(sc5ccccc54)c3=O)C[C@@H]1CO2.Cl (racemic) [Example 66, 3-[3-((±)-cis-9-Methoxy-1,2,3,3a,4,9b-hexahydro-[1]-benzopyrano[3,4-c]pyrrol-2-yl)propyl]-[1]benzthieno[3,2-d]pyrimidine-2,4(1H,3H)-dione hydrochloride]
Ki [1]: 214 nM
Ki (α-1b adrenoreceptor): 533 nM

COc1cccc2c1[C@@H]1CN(CCCCn3c(=O)[nH]c4c(sc5nccc(OC)c54)c3=O)C[C@@H]1CO2 [Example 36, 3-[4-((3aR,9bR)-cis-9-Methoxy-1,2,3,3a,4,9b-hexahydro-[1]-benzopyrano[3,4-c]pyrrol-2-yl)butyl]-9-methoxy-pyrido[3',2':4,5]thieno[3,2-d]pyrimidine-2,4(1H,3H)-dione hydrochloride]
Ki [1, 2]: 0.539 nM
Ki (α-1b adrenoreceptor; [3]): 2.85 nM

COc1cccc2c1[C@@H]1CN(CCCCn3c(=O)[nH]c4c(sc5ncc(-c6ccccc6)nc54)c3=O)C[C@@H]1CO2 [Example 39, 3-[4-((3aR,9bR)-cis-9-Methoxy-1,2,3,3a,4,9b-hexahydro-[1]-benzopyrano[3,4-c]pyrrol-2-yl)butyl]-8-phenyl-pyrazino[2',3':4,5]thieno[3,2-d]pyrimidine-2,4(1H,3H)-dione hydrochloride]
Ki [1, 2]: 0.343 nM
Ki (α-1b adrenoreceptor; [3]): 31.9 nM

Cl.O=c1[nH]c2c(sc3ccccc32)c(=O)n1CCN1C[C@@H]2COc3ccccc3[C@@H]2C1 (racemic) [Example 69, 3-[2-((±)-cis-1,2,3,3a,4,9b-hexahydro-[1]-benzopyrano[3,4-c]pyrrol-2-yl)ethyl]-[1]benzthieno[3,2-d]pyrimidine-2,4(1H,3H)-dione hydrochloride]
Ki [1]: 0.665 nM
Ki (α-1b adrenoreceptor): 4.35 nM

COc1cnc2sc3c(=O)n(CCCCN4CC5COc6cccc(OC)c6[C@@H]5C4)c(=O)[nH]c3c2n1.Cl (stereo in doubt) [Example 43, 3-[4-((3aS,9bR)-trans-9-Methoxy-1,2,3,3a,4,9b-hexahydro-[1]-benzopyrano[3,4-c]pyrrol-2-yl)butyl]-8-methoxy-pyrazino[2',3':4,5]thieno[3,2-d]pyrimidine-2,4(1H,3H)-dione hydrochloride]
Ki [1, 2]: 0.114 nM
Ki (α-1b adrenoreceptor; [3]): 1.49 nM
